Measured values as given in patent publication US12091402B2 (Avilar Therapeutics, Inc., priority 2021, dated 2024).
Where two headings read alike, the source gives them in different places. Where a SMILES comes first, the peptide text is derived from it. Bridges are numbered along the chain shown (N, C = ends). [ ]: non-standard residue; d: D form. Pro(4S-NH2) = N[C@@H]1CN[C@H](C(=O)O)C1

Key:
HepG2 cells = test: Cellular uptake assay of AF488-labeled antibody (HepG2); format: cell-based
Method: The cellular uptake assay is designed to measure compound-mediated cellular uptake of fluorescently labeled antibody following ternary complex formation with the ASGPR receptor and endocytosis of the entire complex into cells.
Human IgG (Sigma-Aldrich, 14506) was covalently labeled with Alexa Fluor 488 using the Alexa Fluor™ 488 Protein Labeling Kit (Thermo Fisher, A10235) following the manufacturer's instructions. HepG2 cells were plated in DMEM supplemented with 10% FBS at 5,000 cells per well in a 96-well microtiter plate and incubated for approximately 18 hours at 37° C./5% CO2. For studies using human IgG, 100 nM AF488-labeled human IgG antibodies and serial dilutions of IgG-based degrader (0.1% DMSO final concentration) were added to the cells and the mixture was incubated at 37° C. for 6 hours. For studies using DNP, 100 nM AF488-labeled DNP antibodies and serial dilutions of DNP-based degrader (0.1% DMSO final concentration) were added to the cells and the mixture was incubated at 37° C. for 6 hours. HepG2 cells were fixed in 100% methanol at −20° C. for 20 min, washed 3× with PBS, then stained with DAPI (Thermo, Cat #H3570). HepG2 cells were imaged for DAPI and Alexa Fluor 488 using the Operetta CLS, high-content analysis system (PerkinElmer). Data is presented as the ratio of the number of cells positive for hIgG or DNP (AF-488 fluorescence) over the total cell number (measured by DAPI).

ASGPR = biological target: T1, ASGPR (Homo sapiens, UniProt P07306); test: Affinity to ASGPR by surface plasmon resonance (SPR)
T1 sequence (P07306 1-291): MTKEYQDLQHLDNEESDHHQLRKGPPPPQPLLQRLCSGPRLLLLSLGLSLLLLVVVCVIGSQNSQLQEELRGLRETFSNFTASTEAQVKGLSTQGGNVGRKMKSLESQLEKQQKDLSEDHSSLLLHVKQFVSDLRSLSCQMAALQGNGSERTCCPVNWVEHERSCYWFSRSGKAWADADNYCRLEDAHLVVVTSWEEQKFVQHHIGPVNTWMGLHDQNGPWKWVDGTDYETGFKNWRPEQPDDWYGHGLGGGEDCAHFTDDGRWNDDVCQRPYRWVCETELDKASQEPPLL
Method: Biotinylated ASGPR (20 μg/ml) was immobilized on SA sensor chips (GE Healthcare) at flow rate of 5 μl/min for 90 sec reaching an immobilization level ranging from 500-3000 resonance units (RU). The running buffer was 50 mM HEPES, pH7.5, 150 mM NaCl, 50 mM CaCl2), 0.01% P20, 3% DMSO. The concentration of compounds vary from 2 mM to 5 nM depending on Kd values. The compounds are diluted 2 or 3-fold with 8 concentration points. Solutions containing serially diluted compounds are injected at a flow rate of 40 μL/min for 150-300 sec followed by a 90-300 sec dissociation phase for each concentration. The surface was regenerated using 50 mM HEPES, pH 7.5, 150 mM NaCl, 5 mM EDTA, 0.01% P20, 3% DMSO.
Data was processed using the analysis software in Biacore 8K to perform background subtraction, double referencing, and solvent correction. Values of affinity expressed as the dissociation constants (Kd) were determined by fitting the steady state binding responses (RUs) as a function of the concentration ([Compound]) using the following equation: RU=RUmax/(KD+[Compound]), where RU max is the calculated maximal response. Where appropriate double-referenced data were fit to using a 1:1 binding model for kinetic analysis.

IgG = test: Affinity to IgG by surface plasmon resonance (SPR); format: binding
Method: Immobilization levels ranging from 1000-1300 resonance units (RU) are obtained. The running buffer is 10 mM HEPES, pH 7.4, 400 mM NaCl, 0.005% P20, […].

[1] = HepG2 cells, 100 nM AF488-labeled antibody, 37° C. for 6 hours, class symbols, read-out: Uptake Assay EC50
[2] = Biacore 8K, 25° C., IgG on CM5 chip, read-out: IgG SPR Binding Kd

Kd (IgG; SPR, read-out: IgG KD) | Kd (IgG; [2]) | SMILES | also measured
 |  | CC(C)C[C@@H]1NC(=O)[C@H](Cc2c[nH]cn2)NC(=O)[C@H](Cc2c[nH]c3ccccc23)NC(=O)[C@H](C)NC(=O)[C@@H]2CSSC[C@H](NC(=O)[C@H](Cc3c[nH]c4ccccc34)NC(=O)[C@H](C(C)C)NC(=O)[C@H](CC(C)C)NC(=O)[C@H](CCC(=O)O)NC(=O)CNC1=O)C(=O)N[C@@H]([C@@H](C)O)C(=O)N1CCC[C@@H]1C(=O)N1C[C@@H](NC(=O)CCOCCOCCNC(=O)CCCc3cn(CCCCCC(=O)NC(COCCC(=O)NCCOCCOCCOCCOC[C@H]4OC[C@H](Nc5nccc(C(F)(F)F)n5)[C@@H](O)[C@H]4O)COCCC(=O)NCCOCCOCCOCCOC[C@H]4OC[C@H](Nc5nccc(C(F)(F)F)n5)[C@@H](O)[C@H]4O)nn3)C[C@H]1C(=O)N[C@@H](CC(=O)O)C(=O)N2 [Compound 12] | EC50 (HepG2 cells; [1]): < 0.1 µM
< 0.1 µM |  | CC(C)C[C@@H]1NC(=O)[C@H](Cc2cnc[nH]2)NC(=O)[C@H](Cc2c[nH]c3ccccc23)NC(=O)[C@H](C)NC(=O)[C@@H]2CSSC[C@H](NC(=O)[C@H](Cc3c[nH]c4ccccc34)NC(=O)[C@H](C(C)C)NC(=O)[C@H](CC(C)C)NC(=O)[C@H](CCC(=O)O)NC(=O)CNC1=O)C(=O)N[C@@H]([C@@H](C)O)C(=O)N1CCC[C@@H]1C(=O)N1C[C@@H](NC(=O)CCCc3cn(C[C@H]4OC[C@H](Nc5nccc(C(F)(F)F)n5)[C@@H](O)[C@H]4O)nn3)C[C@H]1C(=O)N[C@@H](CC(=O)O)C(=O)N2 [Compound 80] | Kd (ASGPR): > 1 µM
 |  | CC(C)C[C@@H]1NC(=O)[C@H](Cc2c[nH]cn2)NC(=O)[C@H](Cc2c[nH]c3ccccc23)NC(=O)[C@H](C)NC(=O)[C@@H]2CSSC[C@H](NC(=O)[C@H](Cc3c[nH]c4ccccc34)NC(=O)[C@H](C(C)C)NC(=O)[C@H](CC(C)C)NC(=O)[C@H](CCC(=O)O)NC(=O)CNC1=O)C(=O)N[C@@H]([C@@H](C)O)C(=O)N1CCC[C@@H]1C(=O)N1C[C@@H](NC(=O)CCOCCOCCNC(=O)CCCc3cn(C[C@@]45CO[C@@H](O4)[C@H](Nc4nc(Cl)ns4)[C@@H](O)[C@H]5O)nn3)C[C@H]1C(=O)N[C@@H](CC(=O)O)C(=O)N2 [Compound 13] | EC50 (HepG2 cells; [1]): 0.1 to 0.5 µM
 |  | CC(C)C[C@@H]1NC(=O)[C@H](Cc2c[nH]cn2)NC(=O)[C@H](Cc2c[nH]c3ccccc23)NC(=O)[C@H](C)NC(=O)[C@@H](NC(=O)[C@H](CC(=O)O)NC(=O)CCOCCOCCOCCOCCNC(=O)CCCc2cn(CCCCCC(=O)NC(COCCC(=O)NCCOCCOCCOCCOC[C@H]3OC[C@H](Nc4nccc(C(F)(F)F)n4)[C@@H](O)[C@H]3O)COCCC(=O)NCCOCCOCCOCCOC[C@H]3OC[C@H](Nc4nccc(C(F)(F)F)n4)[C@@H](O)[C@H]3O)nn2)CSSC[C@@H](C(=O)N[C@H](C(N)=O)[C@@H](C)O)NC(=O)[C@H](Cc2c[nH]c3ccccc23)NC(=O)[C@H](C(C)C)NC(=O)[C@H](CC(C)C)NC(=O)[C@H](CCC(=O)O)NC(=O)CNC1=O [Compound 22] | EC50 (HepG2 cells; read-out: Uptake Assay EC50): < 0.1 µM; EC50 (HepG2 cells; read-out: Uptake EC50): < 0.1 µM; Kd (IgG; read-out: IgG KD): < 0.1 µM; Kd (IgG; read-out: IgG SPR Binding Kd): < 0.1 µM
 |  | CC(C)C[C@@H]1NC(=O)[C@H](Cc2c[nH]cn2)NC(=O)[C@H](Cc2c[nH]c3ccccc23)NC(=O)[C@H](C)NC(=O)[C@@H]2CSSC[C@H](NC(=O)[C@H](Cc3c[nH]c4ccccc34)NC(=O)[C@H](C(C)C)NC(=O)[C@H](CC(C)C)NC(=O)[C@H](CCC(=O)O)NC(=O)CNC1=O)C(=O)N[C@@H]([C@@H](C)O)C(=O)N1CCC[C@@H]1C(=O)N1C[C@@H](NC(=O)CCOCCOCCOCCOCCNC(=O)CCCc3cn(CCCCCC(=O)NC(COCCC(=O)NCCOCCOCCOCCOC[C@@]45CO[C@@H](O4)[C@H](Nc4nc(Cl)ns4)[C@@H](O)[C@H]5O)COCCC(=O)NCCOCCOCCOCCOC[C@@]45CO[C@@H](O4)[C@H](Nc4nc(Cl)ns4)[C@@H](O)[C@H]5O)nn3)C[C@H]1C(=O)N[C@@H](CC(=O)O)C(=O)N2 [Compound 14] | EC50 (HepG2 cells; [1]): < 0.1 µM
< 0.1 µM | < 0.1 µM | CC(C)C[C@@H]1NC(=O)[C@H](Cc2cnc[nH]2)NC(=O)[C@H](Cc2c[nH]c3ccccc23)NC(=O)[C@H](C)NC(=O)[C@@H]2CSSC[C@H](NC(=O)[C@H](Cc3c[nH]c4cc(Cl)ccc34)NC(=O)[C@H](C(C)C)NC(=O)[C@H](CC(C)C)NC(=O)[C@H](CCC(=O)O)NC(=O)CNC1=O)C(=O)N[C@@H]([C@@H](C)O)C(=O)N1CCC[C@@H]1C(=O)N1C[C@@H](N)C[C@H]1C(=O)N[C@@H](CC(=O)O)C(=O)N2 [Intermediate 19] | 
 | < 0.1 µM | CC(C)C[C@@H]1NC(=O)[C@H](Cc2cnc[nH]2)NC(=O)[C@H](Cc2c[nH]c3ccccc23)NC(=O)[C@H](C)NC(=O)[C@@H]2CSSC[C@H](NC(=O)[C@H](Cc3c[nH]c4ccccc34)NC(=O)[C@H](C(C)C)NC(=O)[C@H](CC(C)C)NC(=O)[C@H](CCC(=O)O)NC(=O)CNC1=O)C(=O)N[C@@H]([C@@H](C)O)C(=O)N1CCC[C@@H]1C(=O)N1C[C@@H](N)C[C@H]1C(=O)N[C@@H](CC(=O)O)C(=O)N2 [Intermediate 5] | 
< 0.1 µM |  | C#CCCCC(=O)N[C@H]1C[C@H]2C(=O)N[C@@H](CC(=O)O)C(=O)N[C@H]3CSSC[C@H](NC(=O)[C@H](Cc4c[nH]c5ccccc45)NC(=O)[C@H](C(C)C)NC(=O)[C@H](CC(C)C)NC(=O)[C@H](CCC(=O)O)NC(=O)CNC(=O)[C@H](CC(C)C)NC(=O)[C@H](Cc4cnc[nH]4)NC(=O)[C@H](Cc4c[nH]c5ccccc45)NC(=O)[C@H](C)NC3=O)C(=O)N[C@@H]([C@@H](C)O)C(=O)N3CCC[C@@H]3C(=O)N2C1 [Intermediate 8] | 
< 0.1 µM | < 0.1 µM | CC(C)C[C@@H]1NC(=O)[C@H](Cc2cnc[nH]2)NC(=O)[C@H](Cc2c[nH]c3ccccc23)NC(=O)[C@H](C)NC(=O)[C@@H]2CSSC[C@H](NC(=O)[C@H](Cc3c[nH]c4ccccc34)NC(=O)[C@H](C(C)C)NC(=O)[C@H](CC(C)C)NC(=O)[C@H](CCC(=O)N(C)C)NC(=O)CNC1=O)C(=O)N[C@@H]([C@@H](C)O)C(=O)N1CCC[C@@H]1C(=O)N1C[C@@H](N)C[C@H]1C(=O)N[C@@H](CC(N)=O)C(=O)N2 [Intermediate 27] (cyclo(AWHLGE(NMe2)LVWCT[dP][Pro(4S-NH2)]NC); disulfide 10-15) | 

SMILES | Kd (IgG; SPR, read-out: IgG KD) | Kd (IgG; [2]) | also measured
C#CCCCC(=O)NCCOCCOCCOCCOCCNC(=O)CC[C@@H]1NC(=O)CNC(=O)[C@H](CC(C)C)NC(=O)[C@H](Cc2cnc[nH]2)NC(=O)[C@H](Cc2c[nH]c3ccccc23)NC(=O)[C@H](C)NC(=O)[C@@H](NC(=O)[C@@H](N)CC(=O)O)CSSC[C@@H](C(=O)N[C@H](C(N)=O)[C@@H](C)O)NC(=O)[C@H](Cc2c[nH]c3ccccc23)NC(=O)[C@H](C(C)C)NC(=O)[C@H](CC(C)C)NC1=O [Intermediate 2] |  | < 0.1 µM | 
CC(C)C[C@@H]1NC(=O)[C@H](C)NC(=O)CNC(=O)[C@H](CC(C)C)NC(=O)[C@H](Cc2cnc[nH]2)NC(=O)[C@H](Cc2c[nH]c3ccccc23)NC(=O)[C@H](C)NC(=O)[C@@H]2CSSC[C@H](NC(=O)[C@H](Cc3c[nH]c4ccccc34)NC(=O)[C@H](C(C)C)NC1=O)C(=O)N[C@@H]([C@@H](C)O)C(=O)N1CCC[C@@H]1C(=O)N1C[C@@H](N)C[C@H]1C(=O)N[C@@H](CC(N)=O)C(=O)N2 [Intermediate 28] (cyclo(ALVWCT[dP][Pro(4S-NH2)]NCAWHLG); disulfide 5-10) | < 0.1 µM | < 0.1 µM | 
